Consider 25 compounds from ChEMBL document CHEMBL3046840, “Cyclobutane carboxamide inhibitors of fungal melanin: biosynthesis and their evaluation as fungicides” (Bioorg Med Chem, 2000).

For this test, the target named is T1, Scytalone dehydratase (Magnaporthe oryzae (strain 70-15 / FGSC 8958) (Rice blast fungus)(Pyricularia oryzae), UniProt P56221).
T1 sequence (P56221 whole entry): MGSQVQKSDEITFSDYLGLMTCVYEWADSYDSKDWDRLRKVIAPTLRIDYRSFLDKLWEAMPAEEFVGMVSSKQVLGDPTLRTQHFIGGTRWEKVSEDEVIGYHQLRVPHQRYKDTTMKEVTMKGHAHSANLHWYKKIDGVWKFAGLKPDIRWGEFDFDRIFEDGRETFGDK
By Ki is commonly meant the equilibrium dissociation constant of an inhibitor or competing ligand from its target. Higher therefore signals a looser hold on the target. Take `C[C@@H](NC(=O)[C@]1(C(F)(F)F)C[C@@](C)(Cl)C1)c1ccc(Cl)cc1Cl`: the affinity, expressed as Ki, was 0.011 nM.
The result for `C[C@H](COc1cc(F)ccc1Cl)NC(=O)[C@]1(C)C[C@](C)(Cl)C1` reads 0.057 nM; that for `C[C@H](COc1ccccc1F)NC(=O)[C@]1(C(F)(F)F)C[C@@](C)(Cl)C1`, 0.35 nM; that for `C[C@@H](NC(=O)C1CCC1)c1ccc(Br)cc1`, 520 nM.
In the case of `C[C@@H](NC(=O)[C@H]1C[C@@](C)(Cl)C1)c1ccc(Br)cc1` it was 44 nM; in that of `C[C@@H](NC(=O)C1(Cl)CC(Cl)(Cl)C1)c1ccc(Br)cc1`, 0.45 nM.
In the case of `C[C@@H](NC(=O)C1(C)CC(F)(F)C1)c1ccc(Br)cc1` it was 6 nM; in that of `C[C@@H](NC(=O)[C@]1(C)C[C@](C)(Cl)C1)c1ccc(Br)cc1`, 0.1 nM; in that of `C[C@@H](NC(=O)[C@]1(C)C[C@](Cl)(CCl)C1)c1ccc(Br)cc1`, 0.027 nM.
On to `C[C@@H](NC(=O)[C@]1(C)C[C@@](Cl)(CCl)C1)c1ccc(Br)cc1`, for which affinity was put at a Ki of 0.016 nM.
In the case of `CC[C@]1(C(=O)N[C@H](C)c2ccc(Br)cc2)C[C@@](C)(Cl)C1` it was 0.021 nM; in that of `C[C@@H](NC(=O)[C@]1(C)C[C@](C)(O)C1)c1ccc(Br)cc1`, 480 nM.
As to `C[C@@H](NC(=O)[C@]1(C)C[C@@](C)(O)C1)c1ccc(Br)cc1`, affinity was put at a Ki of 16 nM.
Take `C#C[C@]1(O)C[C@@](C)(C(=O)N[C@H](C)c2ccc(Br)cc2)C1`: the Ki was 28 nM.
In the case of `CC[C@]1(O)C[C@@](C)(C(=O)N[C@H](C)c2ccc(Br)cc2)C1` it was 3.2 nM; in that of `C[C@@H](NC(=O)[C@]1(C)C[C@](C)(Cl)C1)c1ccc(Cl)cc1Cl`, 0.012 nM; in that of `C[C@@H](NC(=O)[C@]1(C)C[C@](C)(Cl)C1)c1cccc2ccccc12`, 3.2 nM.
Compound `C[C@@H](NC(=O)[C@]1(C)C[C@](C)(Cl)C1)c1ccc2ccccc2c1` displayed a Ki of 0.016 nM.
The compound `C[C@H](COc1cc(F)ccc1F)NC(=O)[C@]1(C)C[C@](C)(Cl)C1` came in with a Ki of 0.42 nM.
Regarding `C[C@@H](NC(=O)[C@]1(C(F)(F)F)C[C@@](C)(Cl)C1)c1ccc(Br)cc1`, the Ki turned out to be 0.43 nM.
With `C[C@@H](NC(=O)[C@]1(C(F)(F)F)C[C@@](C)(Cl)C1)c1ccc(Cl)cc1`, the Ki is 0.067 nM.
The result for `CC(C)C(C)(C#N)NC(=O)[C@H](C)Oc1ccc(Cl)cc1Cl` (stereo not given in full) reads 0.13 nM.
Compound `C[C@@H](NC(=O)C1(Cl)CC(C)(Cl)C1)c1ccc(Br)cc1` (mixture of isomers) showed a Ki of 0.31 nM.
In the case of `COc1cc(Br)ccc1C(C)NC(=O)[C@]1(C)C[C@](C)(Cl)C1` (mixture of isomers) it was 0.03 nM; in that of `C[C@@H](NC(=O)C(C#N)C(C)(C)C)c1ccc(Cl)cc1Cl` (stereo not given in full) [DICLOCYMET], 0.036 nM.
